Patent publication US20230172204A1 (BASF SE, priority 2020, published 2023)

Tests used:
[1] = system: Phakopsora pachyrhizi (F129L); assay: Protective control of soybean rust on soybeans (PHAKPA P6); assay type: in vivo; details: for PHAKPA (F129L) Disease level (%) P6 at 16 ppm / PHAKPA (F129L) Disease level (%) P6 at 4 ppm: P6 protective, % diseased leaf area; for % PHAKPA (F129L) Disease level P6 at 16 ppm: protective P6, 16 ppm; for % PHAKPA (F129L) Disease level P6 at 16 ppm / % PHAKPA (F129L) Disease level P6 at 4 ppm: soybean rust F129L; for % PHAKPA (F129L) Disease level P6 at 4 ppm: protective P6, 4 ppm
[2] = system: Phakopsora pachyrhizi (F129L); assay: Protective control of soybean rust on soybeans (PHAKPA P2); assay type: in vivo; details: for PHAKPA (F129L) Disease level (%) P2 at 16 ppm / PHAKPA (F129L) Disease level (%) P2 at 4 ppm: P2 protective, % diseased leaf area; for % PHAKPA (F129L) Disease level P2 at 16 ppm: protective P2, 16 ppm; for % PHAKPA (F129L) Disease level P2 at 16 ppm / % PHAKPA (F129L) Disease level P2 at 4 ppm: soybean rust F129L; for % PHAKPA (F129L) Disease level P2 at 4 ppm: protective P2, 4 ppm

| Structure (SMILES) | PHAKPA (F129L) Disease level (%) P6 at 16 ppm [1] [%] | % PHAKPA (F129L) Disease level P6 at 16 ppm [1] [%] | PHAKPA (F129L) Disease level (%) P2 at 16 ppm [2] [%] | % PHAKPA (F129L) Disease level P2 at 16 ppm [2] [%] | % PHAKPA (F129L) Disease level P6 at 4 ppm [1] [%] | % PHAKPA (F129L) Disease level P2 at 4 ppm [2] [%] | PHAKPA (F129L) Disease level (%) P6 at 4 ppm [1] [%] | PHAKPA (F129L) Disease level (%) P2 at 4 ppm [2] [%] |
| --- | --- | --- | --- | --- | --- | --- | --- | --- |
| CO/N=C(/C(=O)OC)c1cccc(C)c1CO/N=C(\C)c1cccc(OC(F)(F)F)c1 [Ex. 28] | 18 | 0 | 30 | 0 | – | – | – | – |
| CO/N=C(/C(=O)OC)c1cccc(C)c1CO/N=C(\C)c1ccc(Br)cc1 [compound 114] | – | 15 | – | 5 | 52 | 38 | – | – |
| CO/N=C(/C(=O)OC)c1cccc(C)c1CO/N=C(\C)c1cccc(-c2ccccc2)c1 [compound 97] | – | 0 | – | 1 | 1 | 4 | – | – |
| CNC(=O)/C(=N/OC)c1cccc(C)c1CO/N=C(\C)c1ccc(F)cc1OC(F)(F)F [compound 378] | – | 1 | – | 1 | 17 | 18 | – | – |
| C#Cc1cc(C#C)cc(/C(C)=N/OCc2c(C)cccc2/C(=N\OC)C(=O)NC)c1 [compound 193] | – | 0 | – | 0 | 14 | 15 | – | – |
| CO/N=C(/C(=O)OC)c1cccc(C)c1CO/N=C(\C)c1ccccc1C(F)(F)F [Ex. 36] | 57 | 43 | 47 | 42 | 100 | 100 | – | – |
| CCc1ccc(/C(C)=N/OCc2ccccc2/C(=N\OC)C(=O)NC)cc1 [reference compound] | – | – | – | – | – | – | 83 | 35 |
| CCC/C(=N\OCc1c(C)cccc1/C(=N\OC)C(=O)NC)c1ccccc1 [compound 388] | – | 0 | – | 0 | 3 | 1 | – | – |
| CNC(=O)/C(=N/OC)c1cccc(C)c1CO/N=C(\C)c1ccc(C)c(Cl)c1 [compound 109] | – | 0 | – | 1 | 12 | 8 | – | – |
| CNC(=O)/C(=N/OC)c1cccc(C)c1CO/N=C(\C)c1ccc(F)cc1 [compound 108] | – | 0 | – | 0 | 1 | 1 | – | – |
| CO/N=C(/C(=O)OC)c1cccc(C)c1CO/N=C(\C)c1ccc(C#N)cc1 [Ex. 155] | 18 | 20 | 23 | 30 | 93 | 97 | – | – |
| CNC(=O)/C(=N/OC)c1cccc(C)c1CO/N=C(\C)c1cc(F)ccc1Br [compound 248] | – | 2 | – | 2 | 30 | 33 | – | – |
| CCc1ccccc1/C(C)=N/OCc1c(C)cccc1/C(=N\OC)C(=O)NC [compound 176] | – | 90 | – | 100 | 100 | 100 | – | – |
| CNC(=O)/C(=N/OC)c1cccc(C)c1CO/N=C(\C)c1cc(C(F)(F)F)cc(C(F)(F)F)c1 [compound 32] | – | 43 | – | 50 | 73 | 80 | – | – |
| CO/N=C(/C(=O)OC)c1cccc(C)c1CO/N=C(\C)c1c(F)ccc(F)c1OC(F)(F)F [compound 366] | – | 12 | – | 13 | 83 | 53 | – | – |
| CNC(=O)/C(=N/OC)c1cccc(C)c1CO/N=C(\C)c1cccc(C(C)C)c1 [compound 105] | – | 13 | – | 1 | 39 | 18 | – | – |
| CNC(=O)/C(=N/OC)c1cccc(C)c1CO/N=C(\C)c1ccc(C#N)cc1 [Ex. 159] | 0 | 1 | 0 | 2 | 28 | 28 | – | – |
| CNC(=O)/C(=N/OC)c1cccc(C)c1CO/N=C(/c1ccccc1)C(F)F [Ex. 73] | – | – | – | – | 19 | 0 | 37 | 1 |
| C#Cc1cccc(/C(C)=N/OCc2c(C)cccc2/C(=N\OC)C(=O)OC)c1 [compound 53] | – | 47 | – | 17 | 100 | 63 | – | – |
| CO/N=C(/C(=O)OC)c1cccc(C)c1CO/N=C(\C)c1c(F)cccc1F [compound 213] | – | 11 | – | 3 | 40 | 50 | – | – |
| CNC(=O)/C(=N/OC)c1cccc(C)c1CO/N=C(/c1cccc(C)c1)C1CC1 [drawing 975, reference compound] | 67 | – | – | – | – | – | – | 67 |
| CO/N=C(/C(=O)OC)c1cccc(C)c1CO/N=C(\C)c1cc(-c2ccccc2)cc(C(F)(F)F)c1 [compound 144] | – | 90 | – | 80 | 92 | 87 | – | – |
| CO/C=C(/C(=O)OC)c1cccc(C)c1CO/N=C(\C)c1ccc(Br)cc1C(F)(F)F [compound 445] | – | 2 | – | 1 | 30 | 15 | – | – |
| CO/N=C(/C(=O)OC)c1cccc(C)c1CO/N=C(\C)c1cc(Cl)ccc1C(F)(F)F [compound 251] | – | 80 | – | 80 | 80 | 80 | – | – |
| CNC(=O)/C(=N/OC)c1cccc(C)c1CO/N=C(\C)c1ccc(Cc2ccccc2)cc1C(F)(F)F [compound 407] | – | 4 | – | 6 | 17 | 12 | – | – |
| CO/N=C(/C(=O)OC)c1cccc(C)c1CO/N=C(\C)c1cccc(F)c1 [Ex. 86] | 7 | 3 | 6 | 3 | 23 | 12 | – | – |
